Reference: ChEMBL document CHEMBL1255477, “In vitro properties of BAL30072, a novel siderophore sulfactam with activity against multiresistant gram-negative bacilli” (Antimicrob Agents Chemother, 2010)
Converted amounts (≈) assume the structure as drawn. The source made the active and inactive calls. The calls are words filed in the database; no cut-off is given here.

Tests used:
[1] = test system: Pseudomonas aeruginosa; assay: Antimicrobial activity against Pseudomonas aeruginosa BA by broth dilution method; format: functional
[2] = test system: Klebsiella pneumoniae; assay: Antimicrobial activity against Klebsiella pneumoniae CRE harboring beta-lactamase KPC-2 by broth dilution method; format: functional
[3] = test system: Pseudomonas aeruginosa; assay: Antimicrobial activity against Pseudomonas aeruginosa 860 assessed as appearance of colony at 4 times MIC concentration; format: functional
[4] = test system: Pseudomonas aeruginosa; assay: microbe, parasite or virus in culture; conditions: 18S/H
Description: Antimicrobial activity against Pseudomonas aeruginosa 18S/H harboring beta-lactamase Class C by broth dilution method

[5] = test system: Enterobacter cloacae; assay: Antimicrobial activity against Enterobacter cloacae S9369 assessed as number of passages required for MIC to rise above 4 times original MIC; format: functional
[6] = test system: Pseudomonas aeruginosa; assay: microbe, parasite or virus in culture; conditions: PAO1
Description: Antimicrobial activity against Pseudomonas aeruginosa PAO1 by broth dilution method

[7] = test system: Serratia marcescens; assay: Antimicrobial activity against Serratia marcescens 1T9 harboring beta-lactamase Class C by broth dilution method; format: functional
[8] = test system: Pseudomonas aeruginosa; assay: Antimicrobial activity against mexAB-oprM, mexCD-oprJ, mexEF-oprN, mexJK, mexXY, opmH and pscC gene deficient Pseudomonas aeruginosa PAO750 by broth dilution method; format: functional
[9] = test system: Pseudomonas aeruginosa; assay: Antimicrobial activity against Pseudomonas aeruginosa 527 assessed as number of passages required for MIC to rise above 4 times original MIC; format: functional
[10] = test system: Escherichia coli; assay: Antimicrobial activity against Escherichia coli by broth dilution method; format: functional
[11] = test system: Stenotrophomonas maltophilia; assay: Antimicrobial activity against Stenotrophomonas maltophilia by broth dilution method; format: functional
[12] = test system: Escherichia coli; assay: Antimicrobial activity against Escherichia coli nmcA harboring beta-lactamase NMCA by broth dilution method; format: functional
[13] = test system: Acinetobacter baumannii; assay: Antimicrobial activity against Acinetobacter baumannii HPA I-16 harboring beta-lactamase OXA-27 by broth dilution method; format: functional
[14] = test system: Acinetobacter junii; assay: Antimicrobial activity against Acinetobacter junii 15218 assessed as appearance of colony at 4 times MIC concentration; format: functional
[15] = test system: Enterobacter cloacae; assay: Antimicrobial activity against Enterobacter cloacae 908R harboring beta-lactamase AmpC by broth dilution method; format: functional
[16] = test system: Klebsiella oxytoca; assay: Antimicrobial activity against Klebsiella oxytoca by broth dilution method; format: functional
[17] = test system: Enterobacter cloacae; assay: Antimicrobial activity against Enterobacter cloacae S9369 assessed as appearance of colony at 4 times MIC concentration; format: functional, organism-based
[18] = test system: Escherichia coli; assay: Antimicrobial activity against Escherichia coli A harboring beta-lactamase CTX-M 15 by broth dilution method; format: functional
[19] = test system: Enterobacter cloacae; assay: Antimicrobial activity against Enterobacter cloacae by broth dilution method; format: functional
[20] = test system: Acinetobacter baumannii; assay: Antimicrobial activity against Acinetobacter baumannii HPA 327009 harboring beta-lactamase OXA-25 by broth dilution method; format: functional
[21] = test system: Stenotrophomonas maltophilia; assay: Antimicrobial activity against Stenotrophomonas maltophilia B715 harboring beta-lactamase L1and L2 by broth dilution method; format: functional
[22] = test system: Providencia stuartii; assay: Antimicrobial activity against Providencia stuartii by broth dilution method; format: functional
[23] = test system: Citrobacter freundii; assay: Antimicrobial activity against Citrobacter freundii by broth dilution method; format: functional
[24] = test system: Pseudomonas aeruginosa; assay: Antimicrobial activity against mexAB-oprM protein and mexZ deficient Pseudomonas aeruginosa PAO267 by broth dilution method; format: functional
[25] = test system: Acinetobacter baumannii; assay: Antimicrobial activity against Acinetobacter baumannii HPA74510 assessed as appearance of colony at 4 times MIC concentration; format: functional, organism-based
[26] = test system: Klebsiella pneumoniae; assay: Antimicrobial activity against Klebsiella pneumoniae YC harboring beta-lactamase KPC-2,TEM-1and SHV-2 by broth dilution method; format: functional
[27] = test system: Providencia rettgeri; assay: Antimicrobial activity against Providencia rettgeri by broth dilution method; format: functional
[28] = test system: Pseudomonas aeruginosa; assay: Antimicrobial activity against mexAB-oprM protein and mexCD-oprJ deficient Pseudomonas aeruginosa PAO238 by broth dilution method; format: functional
[29] = test system: Escherichia coli; assay: Antimicrobial activity against Escherichia coli Libyien harboring beta-lactamase CMY-2 by broth dilution method; format: functional
[30] = test system: Acinetobacter baumannii; assay: Antimicrobial activity against Acinetobacter baumannii HPA 4737 harboring beta-lactamase OXA-26 by broth dilution method; format: functional
[31] = test system: Acinetobacter baumannii; assay: Antimicrobial activity against Acinetobacter baumannii HPA74510 harboring beta-lactamase IMP-4 by broth dilution method; format: functional
[32] = test system: Pseudomonas aeruginosa; assay: Antimicrobial activity against Pseudomonas aeruginosa BA(C2-107) selected after 25 ug/ml of compound exposure by broth dilution method; format: functional
[33] = test system: Enterobacter cloacae; assay: Antimicrobial activity against Enterobacter cloacae S4741B assessed as appearance of colony at 4 times MIC concentration; format: functional
[34] = test system: Enterobacter cloacae; assay: Microbicidal activity against Enterobacter cloacae S4741B selected after 4 times MIC compound exposure; format: functional
[35] = test system: Pseudomonas aeruginosa; assay: Antimicrobial activity against pfeA deficient Pseudomonas aeruginosa 134 by broth dilution method; format: functional
[36] = test system: Pseudomonas aeruginosa; assay: Antimicrobial activity against Pseudomonas aeruginosa 1973E harboring beta-lactamase PSE-1 and class C enzymes by broth dilution method; format: functional
[37] = test system: Klebsiella oxytoca; assay: Antimicrobial activity against Klebsiella oxytoca 1028E harboring beta-lactamase K1 by broth dilution method; format: functional
[38] = test system: Proteus vulgaris; assay: Antimicrobial activity against Proteus vulgaris by broth dilution method; format: functional
[39] = test system: Pseudomonas aeruginosa; assay: Antimicrobial activity against Pseudomonas aeruginosa BA assessed as appearance of colony at 4 times MIC concentration; format: functional
[40] = test system: Serratia marcescens; assay: Antimicrobial activity against Serratia marcescens S6 harboring beta-lactamase SME-1.AmpC by broth dilution method; format: functional
[41] = test system: Klebsiella pneumoniae; assay: Antimicrobial activity against Klebsiella pneumoniae 1338665 assessed as appearance of colony at 4 times MIC concentration; format: functional, organism-based
[42] = test system: Pseudomonas aeruginosa; assay: Antimicrobial activity against Pseudomonas aeruginosa HPA10586 harboring beta-lactamase VIM-1 by broth dilution method; format: functional
[43] = test system: Pseudomonas aeruginosa; assay: Antimicrobial activity against Pseudomonas aeruginosa BA(C1-106) selected after 25 ug/ml of compound exposure by broth dilution method; format: functional
[44] = test system: Escherichia coli; assay: Antimicrobial activity against Escherichia coli HB101 harboring beta-lactamase TEM-5 by broth dilution method; format: functional
[45] = test system: Klebsiella pneumoniae; assay: Antimicrobial activity against Klebsiella pneumoniae 1357E harboring beta-lactamase TEM-10 by broth dilution method; format: functional
[46] = test system: Pseudomonas aeruginosa; assay: Antimicrobial activity against Pseudomonas aeruginosa 621 assessed as appearance of colony at 4 times MIC concentration; format: functional
[47] = test system: Klebsiella pneumoniae; assay: Antimicrobial activity against Klebsiella pneumoniae 1338665 assessed as number of passages required for MIC to rise above 4 times original MIC; format: functional
[48] = test system: Escherichia coli; assay: Antimicrobial activity against Escherichia coli CF102 harboring beta-lactamase TEM-3 by broth dilution method; format: functional
[49] = test system: Pseudomonas aeruginosa; assay: Antimicrobial activity against Pseudomonas aeruginosa by broth dilution method; format: functional
[50] = test system: Klebsiella pneumoniae; assay: Antimicrobial activity against Klebsiella pneumoniae 26768WU harboring beta-lactamase SHV-5 by broth dilution method; format: functional
[51] = test system: Pseudomonas aeruginosa; assay: Antimicrobial activity against Pseudomonas aeruginosa BA assessed as number of passages required for MIC to rise above 4 times original MIC; format: functional
[52] = test system: Pseudomonas aeruginosa; assay: Antimicrobial activity against fpvA, fpvB, fptA and pirA gene deficient Pseudomonas aeruginosa 860 by broth dilution method; format: functional

Compound: C[C@@H](O)[C@H]1C(=O)N2C(C(=O)O)=C(S[C@@H]3CN[C@H](C(=O)N(C)C)C3)[C@H](C)[C@H]12 [MEROPENEM]
- MIC [1]: 1 µg/mL (≈ 2.61 µM)
- MIC ([1]; Pseudomonas aeruginosa, BA, read-out: MIC): 1 µg/mL (≈ 2.61 µM)
- MIC [2]: > 32 µg/mL
- Activity [3]: 1 frequency
- MIC [4]: 2 µg/mL (≈ 5.22 µM)
- Activity [5]: 9 passages
- MIC [6]: 1 µg/mL (≈ 2.61 µM)
- MIC [7]: 0.125 µg/mL (≈ 0.326 µM)
- MIC [8]: 0.5 µg/mL (≈ 1.3 µM)
- Activity [9]: 3 passages
- MIC50 [10]: ≤ 0.06 µg/mL
- MIC90 [10]: 0.5 µg/mL (≈ 1.3 µM)
- MIC50 [11]: 8 µg/mL (≈ 20.9 µM)
- MIC90 [11]: > 32 µg/mL
- MIC [12]: > 32 µg/mL
- MIC [13]: > 32 µg/mL
- Activity [14]: Active
- MIC [15]: 0.125 µg/mL (≈ 0.326 µM)
- MIC50 [16]: ≤ 0.06 µg/mL
- MIC90 [16]: 1 µg/mL (≈ 2.61 µM)
- Activity [17]: Active
- MIC [18]: 0.125 µg/mL (≈ 0.326 µM)
- MIC [19]: ≤ 0.06 µg/mL
- MIC50 [19]: ≤ 0.06 µg/mL
- MIC90 [19]: 0.25 µg/mL (≈ 0.652 µM)
- MIC [20]: > 32 µg/mL
- MIC [21]: > 32 µg/mL
- MIC50 [22]: 0.25 µg/mL (≈ 0.652 µM)
- MIC90 [22]: > 32 µg/mL
- MIC [23]: ≤ 0.06 µg/mL
- MIC50 [23]: ≤ 0.06 µg/mL
- MIC90 [23]: 0.25 µg/mL (≈ 0.652 µM)
- MIC [24]: 0.125 µg/mL (≈ 0.326 µM)
- Activity [25]: inactive
- MIC [26]: > 32 µg/mL
- MIC50 [27]: 0.25 µg/mL (≈ 0.652 µM)
- MIC90 [27]: > 32 µg/mL
- MIC [28]: 0.5 µg/mL (≈ 1.3 µM)
- MIC [29]: 0.125 µg/mL (≈ 0.326 µM)
- MIC [30]: > 32 µg/mL
- MIC [31]: 32 µg/mL (≈ 83.4 µM)
- MIC [32]: 2 µg/mL (≈ 5.22 µM)
- Activity [33]: Active
- MBC [34]: 0.25 µg/mL (≈ 0.652 µM)
- MIC [35]: 1 µg/mL (≈ 2.61 µM)
- MIC [36]: 4 µg/mL (≈ 10.4 µM)
- MIC [37]: 0.125 µg/mL (≈ 0.326 µM)
- MIC50 [38]: 0.125 µg/mL (≈ 0.326 µM)
- MIC90 [38]: 0.5 µg/mL (≈ 1.3 µM)
- Activity [39]: 1 frequency
- MIC [40]: 32 µg/mL (≈ 83.4 µM)
- Activity [41]: inactive
- MIC [42]: > 32 µg/mL
- MIC [43]: 1 µg/mL (≈ 2.61 µM)
- MIC [44]: ≤ 0.06 µg/mL
- MIC [45]: ≤ 0.06 µg/mL
- Activity [46]: 1 frequency
- Activity [47]: inactive
- MIC [48]: ≤ 0.06 µg/mL
- MIC50 [49]: 4 µg/mL (≈ 10.4 µM)
- MIC90 [49]: > 32 µg/mL
- MIC [50]: ≤ 0.06 µg/mL
- Activity [51]: 3 passages
- MIC [52]: 1 µg/mL (≈ 2.61 µM)
